Measured values as given in paper PMC8480776, “Selenium Derivatives as Promising Therapy for Chagas Disease: In Vitro and In Vivo Studies” (ACS Infectious Diseases, 2021).

What was measured:
[1] = system: T. cruzi epimastigotes, Arequipa strain; experiment: Screening against extracellular epimastigotes, Arequipa strain; format: cell-based, Trypanosoma cruzi; settings: for IC50: Trypanosoma cruzi, 48 h + 24 h resazurin, read-out: Activity IC50, epimastigote form, Arequipa strain; for Selectivity index (SI), epimastigotes, Arequipa strain: IC50 Vero cells/IC50 epimastigotes
[2] = system: T. cruzi epimastigotes, SN3 strain; experiment: Screening against extracellular epimastigotes, SN3 strain; format: cell-based, Trypanosoma cruzi; settings: for IC50: Trypanosoma cruzi, 48 h + 24 h resazurin, read-out: Activity IC50, epimastigote form, SN3 strain; for Selectivity index (SI), epimastigotes, SN3 strain: IC50 Vero cells/IC50 epimastigotes
Vero cells = experiment: Cytotoxicity test on Vero cells; format: cell-based; settings: Chlorocebus sabaeus, 48 h + 24 h resazurin, read-out: Toxicity IC50 Vero cell
[3] = system: T. cruzi epimastigotes, Tulahuen strain; experiment: Screening against extracellular epimastigotes, Tulahuen strain; format: cell-based, Trypanosoma cruzi; settings: for IC50: Trypanosoma cruzi, TULAHUEN, 48 h + 24 h resazurin, read-out: Activity IC50, epimastigote form, Tulahuen strain; for Selectivity index (SI), epimastigotes, Tulahuen strain: IC50 Vero cells/IC50 epimastigotes
[4] = system: T. cruzi amastigotes, Arequipa strain; experiment: Screening against intracellular amastigotes, Arequipa strain; format: cell-based, Trypanosoma cruzi; settings: for selectivity index (SI), Arequipa strain, am. forms: IC50 Vero cells/IC50 amastigotes; for IC50: Trypanosoma cruzi, amastigotes in Vero cells, 72 h, read-out: activity IC50, Arequipa strain, am. forms
[5] = system: T. cruzi trypomastigotes, Tulahuen strain; experiment: Screening against bloodstream trypomastigotes, Tulahuen strain; format: cell-based, Trypanosoma cruzi; settings: Trypanosoma cruzi, TULAHUEN; bloodstream trypomastigotes, 24 h + 4 h resazurin; read-out: activity IC50, Tulahuen strain, trypom. forms
[6] = system: T. cruzi amastigotes, Tulahuen strain; experiment: Screening against intracellular amastigotes, Tulahuen strain; format: cell-based, Trypanosoma cruzi; settings: Trypanosoma cruzi, TULAHUEN; amastigotes in Vero cells, 72 h; read-out: activity IC50, Tulahuen strain, am. forms
[7] = system: T. cruzi trypomastigotes, Arequipa strain; experiment: Screening against bloodstream trypomastigotes, Arequipa strain; format: cell-based, Trypanosoma cruzi; settings: for selectivity index (SI), Arequipa strain, trypom. forms: IC50 Vero cells/IC50 trypomastigotes; for IC50: Trypanosoma cruzi, bloodstream trypomastigotes, 24 h + 4 h resazurin, read-out: activity IC50, Arequipa strain, trypom. forms
[8] = system: T. cruzi amastigotes, SN3 strain; experiment: Screening against intracellular amastigotes, SN3 strain; format: cell-based, Trypanosoma cruzi
[9] = system: T. cruzi trypomastigotes, SN3 strain; experiment: Screening against bloodstream trypomastigotes, SN3 strain; format: cell-based, Trypanosoma cruzi

| Compound | IC50 [1] | IC50 [2] | CC50 (Vero cells) | IC50 [3] | also measured |
| --- | --- | --- | --- | --- | --- |
| O=C(Nc1ccc([Se][Se]c2ccc(NC(=O)c3ccccc3)cc2)cc1)c1ccccc1 [Compound 1] | > 50 µM | > 50 µM | 800 ± 44 µM | > 50 µM | – |
| O=C(Nc1ccc([Se][Se]c2ccc(NC(=O)c3ccc(Cl)cc3)cc2)cc1)c1ccc(Cl)cc1 [Compound 2] | > 50 µM | > 50 µM | 622 ± 41.9 µM | > 50 µM | – |
| COc1ccc(C(=O)Nc2ccc([Se][Se]c3ccc(NC(=O)c4ccc(OC)cc4)cc3)cc2)cc1 [Compound 3] | > 50 µM | > 50 µM | 252 ± 21.6 µM | > 50 µM | – |
| N#Cc1ccc(C(=O)Nc2ccc([Se][Se]c3ccc(NC(=O)c4ccc(C#N)cc4)cc3)cc2)cc1 [Compound 4] | > 50 µM | > 50 µM | 280 ± 34.2 µM | > 50 µM | – |
| O=C(Nc1ccc([Se][Se]c2ccc(NC(=O)c3ccc([N+](=O)[O-])cc3)cc2)cc1)c1ccc([N+](=O)[O-])cc1 [Compound 5] | > 50 µM | > 50 µM | 552 ± 43.1 µM | > 50 µM | – |
| O=C(Nc1ccc([Se][Se]c2ccc(NC(=O)c3ccc(C(F)(F)F)cc3)cc2)cc1)c1ccc(C(F)(F)F)cc1 [Compound 6] | > 50 µM | > 50 µM | 536 ± 39.2 µM | > 50 µM | – |
| Cc1ccc(C(=O)Nc2ccc([Se][Se]c3ccc(NC(=O)c4ccc(C)cc4)cc3)cc2)cc1 [Compound 7] | > 50 µM | > 50 µM | 341 ± 28.3 µM | > 50 µM | – |
| O=C(Nc1ccc([Se][Se]c2ccc(NC(=O)c3ccco3)cc2)cc1)c1ccco1 [Compound 8] | > 50 µM | > 50 µM | 1250 ± 97.7 µM | > 50 µM | – |
| O=C(Nc1ccc([Se][Se]c2ccc(NC(=O)c3cccs3)cc2)cc1)c1cccs1 [Compound 9] | > 50 µM | 48 ± 6.4 µM | < 50 µM | > 50 µM | – |
| O=C(Nc1ccc([Se][Se]c2ccc(NC(=O)c3ccno3)cc2)cc1)c1ccno1 [Compound 10] | > 50 µM | > 50 µM | 212 ± 18.7 µM | > 50 µM | – |
| O=C(Nc1ccc([Se][Se]c2ccc(NC(=O)C34CC5CC(CC(C5)C3)C4)cc2)cc1)C12CC3CC(CC(C3)C1)C2 [Compound 11] | > 50 µM | > 50 µM | 226 ± 19.1 µM | > 50 µM | – |
| O=C(/C=C/c1ccccc1)Nc1ccc([Se][Se]c2ccc(NC(=O)/C=C/c3ccccc3)cc2)cc1 [Compound 12] | > 50 µM | > 50 µM | 280 ± 24.4 µM | > 50 µM | – |
| O=C(Nc1ccc([Se][Se]c2ccc(NC(=O)c3cccc4ccccc34)cc2)cc1)c1cccc2ccccc12 [Compound 13] | > 50 µM | > 50 µM | 98.2 ± 12.8 µM | > 50 µM | – |
| CSc1ccc(C(=O)Nc2ccc([Se][Se]c3ccc(NC(=O)c4ccc(SC)cc4)cc3)cc2)cc1 [Compound 14] | > 50 µM | > 50 µM | 407 ± 17.8 µM | > 50 µM | – |
| COP(=O)(Nc1ccc([Se][Se]c2ccc(NP(=O)(OC)OC)cc2)cc1)OC [Compound 15] | 19.6 ± 2 µM | 12.5 ± 1.1 µM | < 50 µM | 14.4 ± 1.7 µM | – |
| O=P(Nc1ccc([Se][Se]c2ccc(NP(=O)(Oc3ccccc3)Oc3ccccc3)cc2)cc1)(Oc1ccccc1)Oc1ccccc1 [Compound 16] | > 50 µM | > 50 µM | 147 ± 11.4 µM | > 50 µM | – |
| CCOP(=O)(Nc1ccc([Se][Se]c2ccc(NP(=O)(OCC)OCC)cc2)cc1)OCC [Compound 17] | > 50 µM | > 50 µM | 183 ± 20 µM | > 50 µM | – |
| CCOP(=S)(Nc1ccc([Se][Se]c2ccc(NP(=S)(OCC)OCC)cc2)cc1)OCC [Compound 18] | > 50 µM | > 50 µM | 182 ± 14.3 µM | > 50 µM | – |
| O=P(Nc1ccccc1)(Nc1ccc([Se][Se]c2ccc(NP(=O)(Nc3ccccc3)Oc3ccccc3)cc2)cc1)Oc1ccccc1 (centres unmarked) [Compound 19] | > 50 µM | > 50 µM | < 50 µM | > 50 µM | – |

| Compound | IC50 [1] | IC50 [2] | CC50 (Vero cells) | IC50 [3] | also measured |
| --- | --- | --- | --- | --- | --- |
| Cc1ccc(OP(=O)(Nc2ccc([Se][Se]c3ccc(NP(=O)(Oc4ccc(C)cc4)Oc4ccc(C)cc4)cc3)cc2)Oc2ccc(C)cc2)cc1 [Compound 20] | > 50 µM | > 50 µM | < 50 µM | > 50 µM | – |
| N#C[Se]c1ccc(NC(=O)c2ccccc2)cc1 [Compound 21] | > 50 µM | 37.1 ± 4.6 µM | < 50 µM | > 50 µM | – |
| N#C[Se]c1ccc(NC(=O)c2ccc(Cl)cc2)cc1 [Compound 22] | 36.2 ± 2.8 µM | 5.4 ± 0.7 µM | < 50 µM | 19.4 ± 1.4 µM | – |
| COc1ccc(C(=O)Nc2ccc([Se]C#N)cc2)cc1 [Compound 23] | 34.5 ± 2.7 µM | 4.1 ± 0.4 µM | < 50 µM | 17.6 ± 2.5 µM | – |
| N#C[Se]c1ccc(NC(=O)c2ccc(C#N)cc2)cc1 [Compound 24] | 30.5 ± 1.9 µM | 9.8 ± 1.2 µM | 70.8 ± 5.4 µM | 15.4 ± 2.1 µM | Selectivity index (SI), epimastigotes, Arequipa strain [1]: 2; Selectivity index (SI), epimastigotes, SN3 strain [2]: 7; Selectivity index (SI), epimastigotes, Tulahuen strain [3]: 5 |
| N#C[Se]c1ccc(NC(=O)c2ccc([N+](=O)[O-])cc2)cc1 [Compound 25] | 26.3 ± 2.1 µM | > 50 µM | 516 ± 42.2 µM | 25.3 ± 4.1 µM | Selectivity index (SI), epimastigotes, Arequipa strain [1]: 20; selectivity index (SI), Arequipa strain, am. forms [4]: 10; IC50 [4]: 49.3 ± 4.1 µM; IC50 [5]: 42.2 ± 3.9 µM; Selectivity index (SI), epimastigotes, Tulahuen strain [3]: 20; IC50 [6]: > 50 µM; selectivity index (SI), Arequipa strain, trypom. forms [7]: 14; IC50 [7]: 35.8 ± 5.8 µM |
| Cc1ccc(C(=O)Nc2ccc([Se]C#N)cc2)cc1 [Compound 27] | 4.5 ± 0.7 µM | 4.2 ± 0.3 µM | < 50 µM | 4.9 ± 0.3 µM | – |
| N#C[Se]c1ccc(NC(=O)c2cccs2)cc1 [Compound 29] | 5.4 ± 0.8 µM | 8.9 ± 1.1 µM | 60.9 ± 8.7 µM | 6.6 ± 0.4 µM | Selectivity index (SI), epimastigotes, Arequipa strain [1]: 11; selectivity index (SI), Arequipa strain, am. forms [4]: 4; IC50 [4]: 15.4 ± 2 µM; Selectivity index (SI), epimastigotes, SN3 strain [2]: 7; Selectivity index (SI), epimastigotes, Tulahuen strain [3]: 9; selectivity index (SI), Arequipa strain, trypom. forms [7]: 5; IC50 [7]: 12.7 ± 1.2 µM |
| N#C[Se]c1ccc(NC(=O)c2ccno2)cc1 [Compound 30] | 9.8 ± 1 µM | 24.1 ± 2.3 µM | 86 ± 6.7 µM | 15.3 ± 1.1 µM | Selectivity index (SI), epimastigotes, Arequipa strain [1]: 9; Selectivity index (SI), epimastigotes, SN3 strain [2]: 4; Selectivity index (SI), epimastigotes, Tulahuen strain [3]: 6 |
| N#C[Se]c1ccc(NC(=O)C23CC4CC(CC(C4)C2)C3)cc1 [Compound 31] | 4.6 ± 0.5 µM | 12.5 ± 1.6 µM | < 50 µM | 8.1 ± 0.9 µM | – |
| N#C[Se]c1ccc(NC(=O)/C=C/c2ccccc2)cc1 [Compound 32] | 7.4 ± 0.9 µM | 4.8 ± 0.8 µM | < 50 µM | 7.9 ± 0.5 µM | – |
| N#C[Se]c1ccc(NC(=O)c2cccc3ccccc23)cc1 [Compound 33] | 9.4 ± 1.2 µM | 4.8 ± 0.6 µM | 52.7 ± 4.9 µM | 10.8 ± 1.2 µM | Selectivity index (SI), epimastigotes, Arequipa strain [1]: 6; selectivity index (SI), SN3 strain, am. forms ([8]; IC50 Vero cells/IC50 amastigotes): 3; IC50 ([8]; Trypanosoma cruzi, amastigotes in Vero cells, 72 h, read-out: activity IC50, SN3 strain, am. forms): 16.9 ± 1.4 µM; Selectivity index (SI), epimastigotes, SN3 strain [2]: 11; selectivity index (SI), SN3 strain, trypom. forms ([9]; IC50 Vero cells/IC50 trypomastigotes): 4; IC50 ([9]; Trypanosoma cruzi, bloodstream trypomastigotes, 24 h + 4 h resazurin, read-out: activity IC50, SN3 strain, trypom. forms): 14.1 ± 1.1 µM; Selectivity index (SI), epimastigotes, Tulahuen strain [3]: 5 |
| CSc1ccc(C(=O)Nc2ccc([Se]C#N)cc2)cc1 [Compound 34] | 16.4 ± 2 µM | 21 ± 2.7 µM | 72.6 ± 9.9 µM | 29.1 ± 3.1 µM | Selectivity index (SI), epimastigotes, Arequipa strain [1]: 4; Selectivity index (SI), epimastigotes, SN3 strain [2]: 3; Selectivity index (SI), epimastigotes, Tulahuen strain [3]: 2 |
| COP(=O)(Nc1ccc([Se]C#N)cc1)OC [Compound 36] | 28.1 ± 3.2 µM | 4.3 ± 0.7 µM | < 50 µM | 18.4 ± 1.4 µM | – |
| N#C[Se]c1ccc(NP(=O)(Oc2ccccc2)Oc2ccccc2)cc1 [Compound 37] | 20.1 ± 2.8 µM | 30.3 ± 3.2 µM | < 50 µM | 22.3 ± 3 µM | – |
| CCOP(=O)(Nc1ccc([Se]C#N)cc1)OCC [Compound 38] | > 50 µM | > 50 µM | < 50 µM | > 50 µM | – |
| N#C[Se]c1ccc(NP(=O)(Nc2ccccc2)Oc2ccccc2)cc1 (centres unmarked) [Compound 40] | 41.1 ± 4.4 µM | > 50 µM | < 50 µM | > 50 µM | – |
| Cc1ccc(OP(=O)(Nc2ccc([Se]C#N)cc2)Oc2ccc(C)cc2)cc1 [Compound 41] | > 50 µM | 43.2 ± 5.3 µM | < 50 µM | 29.9 ± 2.1 µM | – |
